Measured values taken from ChEMBL document CHEMBL1122489, “Pyrimidine derivatives. 4. Synthesis and antihypertensive activity of 4-amino-2-(4-cinnamoylpiperazino)-6,7-dimethoxyquinazoline derivatives” (J Med Chem, 1983).

Legend:
Assay type in all cases: functional
Rattus norvegicus [1] = assay: Antihypertensive activity rating in conscious SHR after 6 hr post dose at 10 mg/kg (po)
Rattus norvegicus [2] = assay: Antihypertensive activity rating in conscious SHR after 3 hr post dose at 10 mg/kg (po)
Rattus norvegicus [3] = assay: Antihypertensive activity rating in conscious SHR after 1 hr post dose at 10 mg/kg (po)
Rattus norvegicus [4] = assay: Maximum percent decrease in blood pressure in SHR dosed at 10 mg/kg (hour post dose in parentheses)
Rattus norvegicus [5] = assay: Antihypertensive activity rating in conscious SHR after 24 hr post dose at 10 mg/kg (po)
Rattus norvegicus [6] = assay: Antihypertensive activity rating in conscious SHR after 6 hr post dose at 3 mg/kg (po)
Rattus norvegicus [7] = assay: Antihypertensive activity rating in conscious SHR after 3 h post dose at 3 mg/kg (po)
Rattus norvegicus [8] = assay: Maximum percent decrease in blood pressure in SHR dosed at 3 mg/kg (hour post dose in parentheses)
Rattus norvegicus [9] = assay: Antihypertensive activity rating in conscious SHR after 24 hr post dose at 3 mg/kg (po)
Rattus norvegicus [10] = assay: Antihypertensive activity rating in conscious SHR after 1 hr post dose at 3 mg/kg (po)
Rattus norvegicus [11] = assay: Antihypertensive activity rating in conscious SHR after 24 hr post dose at 1 mg/kg (po)
Rattus norvegicus [12] = assay: Maximum percent decrease in blood pressure in SHR dosed at 1 mg/kg (hour post dose in parentheses)
Rattus norvegicus [13] = assay: Antihypertensive activity rating in conscious SHR after 1 hr post dose at 1 mg/kg (po)
Rattus norvegicus [14] = assay: Antihypertensive activity rating in conscious SHR after 6 hr post dose at 1 mg/kg (po)
Rattus norvegicus [15] = assay: Antihypertensive activity rating in conscious SHR after 3 hr post dose at 1 mg/kg (po)
Rattus norvegicus [16] = assay: Maximum percent decrease in blood pressure in SHR dosed at 0.3 mg/kg (hour post dose in parentheses)
Rattus norvegicus [17] = assay: Antihypertensive activity rating in conscious SHR after 1 hr post dose at 0.3 mg/kg (po)
Rattus norvegicus [18] = assay: Antihypertensive activity rating in conscious SHR after 24 hr post dose at 0.3 mg/kg (po)
Rattus norvegicus [19] = assay: Antihypertensive activity rating in conscious SHR after 3 hr post dose at 0.3 mg/kg (po)
Rattus norvegicus [20] = assay: Antihypertensive activity rating in conscious SHR after 6 hr post dose at 0.3 mg/kg (po)
Rattus norvegicus [21] = organism: Rattus norvegicus; assay: Compound was tested for alpha-adrenoceptor blocking activity by its ability to antagonize norepinephrine contraction in the rat thoracic aorta; conditions: read-out: pA2 (converted)
[22] = Potency ratio in rat thoracic aorta

| Structure (SMILES) | Activity (Rattus norvegicus [1]) | Activity (Rattus norvegicus [2]) | Activity (Rattus norvegicus [3]) | Decrease (Rattus norvegicus [4]) [%] | Activity (Rattus norvegicus [5]) | Activity (Rattus norvegicus [6]) | Activity (Rattus norvegicus [7]) | Decrease (Rattus norvegicus [8]) [%] | Activity (Rattus norvegicus [9]) | Activity (Rattus norvegicus [10]) | Activity (Rattus norvegicus [11]) | Activity (Rattus norvegicus [13]) | Activity (Rattus norvegicus [14]) | Activity (Rattus norvegicus [15]) | other results |
| --- | --- | --- | --- | --- | --- | --- | --- | --- | --- | --- | --- | --- | --- | --- | --- |
| COc1cc2nc(N3CCN(C(=O)/C=C/c4ccc(Cl)c(Cl)c4)CC3)nc(N)c2cc1OC | 0 | 0 | – | – | – | – | – | – | – | – | – | – | – | – | – |
| COc1cc2nc(N3CCN(C(=O)/C=C/c4cccc(C)c4)CC3)nc(N)c2cc1OC | 1 | 1 | 0 | 18 | 0 | – | – | – | – | – | – | – | – | – | – |
| COc1cccc(/C=C/C(=O)N2CCN(c3nc(N)c4cc(OC)c(OC)cc4n3)CC2)c1.Cl | 1 | 1 | – | 12 | 0 | – | – | – | – | – | – | – | – | – | – |
| COc1ccccc1/C=C/C(=O)N1CCN(c2nc(N)c3cc(OC)c(OC)cc3n2)CC1.Cl | 0 | 0 | – | – | – | – | – | – | – | – | – | – | – | – | – |
| COc1cc2nc(N3CCN(C(=O)/C=C/c4ccc(C(C)C)cc4)CC3)nc(N)c2cc1OC | 0 | 0 | – | – | – | – | – | – | – | – | – | – | – | – | – |
| COc1cc2nc(N3CCN(C(=O)/C=C/c4ccc(Cl)o4)CC3)nc(N)c2cc1OC.Cl | – | – | – | – | – | 1 | 1 | 17 | 0 | 1 | – | – | – | – | – |
| COc1cc2nc(N3CCN(C(=O)/C=C/c4ccc(C)s4)CC3)nc(N)c2cc1OC.Cl | – | – | – | – | – | 0 | 1 | 14 | 0 | 0 | – | – | – | – | – |
| COc1cc2nc(N3CCN(C(=O)/C=C/c4ccc(Cl)s4)CC3)nc(N)c2cc1OC.Cl | 1 | 1 | 1 | 12 | – | – | – | – | – | – | – | – | – | – | – |
| COc1cc2nc(N3CCN(C(=O)/C=C/c4ccccc4C)CC3)nc(N)c2cc1OC | 2 | 2 | – | 23 | 0 | 1 | 1 | 18 | 0 | 1 | 0 | 1 | 0 | 0 | Decrease (Rattus norvegicus [12]): 12% |
| COc1cc2nc(N3CCN(C(=O)/C=C/c4ccoc4)CC3)nc(N)c2cc1OC | – | – | – | – | – | 1 | 1 | 19 | 0 | 1 | – | – | – | – | – |
| COc1cc2nc(N3CCN(C(=O)/C=C/c4ccc(Br)cc4)CC3)nc(N)c2cc1OC.Cl | 1 | 1 | 0 | 12 | 0 | – | – | – | – | – | – | – | – | – | – |
| COc1cc2nc(N3CCN(C(=O)/C=C/c4ccc(OC(C)C)cc4)CC3)nc(N)c2cc1OC.Cl | 1 | 1 | 0 | 19 | 0 | – | – | – | – | – | – | – | – | – | – |
| COc1cc2nc(N3CCN(C(=O)/C=C/c4cccc([N+](=O)[O-])c4)CC3)nc(N)c2cc1OC.Cl | 0 | 0 | – | – | – | – | – | – | – | – | – | – | – | – | – |
| COc1cc2nc(N3CCN(C(=O)/C(C)=C/c4ccco4)CC3)nc(N)c2cc1OC.Cl | – | – | – | – | – | 1 | 0 | 16 | 0 | 1 | 0 | 0 | 1 | 0 | Decrease (Rattus norvegicus [12]): 15% |
| COc1cc2nc(N3CCN(C(=O)/C=C/c4ccc(C)cc4)CC3)nc(N)c2cc1OC.Cl | – | – | – | – | – | 0 | 1 | 10 | 0 | 0 | – | – | – | – | – |
| COc1cc2nc(N3CCN(C(=O)/C=C/c4ccsc4)CC3)nc(N)c2cc1OC | – | – | – | – | – | 1 | 1 | 25 | 0 | 2 | 0 | 1 | 1 | 1 | Decrease (Rattus norvegicus [16]): 11%; Activity (Rattus norvegicus [17]): 1; Activity (Rattus norvegicus [18]): 0; Decrease (Rattus norvegicus [12]): 19%; Activity (Rattus norvegicus [19]): 1; Activity (Rattus norvegicus [20]): 1 |
| COc1ccc(/C=C/C(=O)N2CCN(c3nc(N)c4cc(OC)c(OC)cc4n3)CC2)cc1 | 2 | 2 | 1 | 23 | 0 | 2 | 1 | 20 | 0 | 0 | 0 | 0 | 1 | 1 | Decrease (Rattus norvegicus [12]): 15% |
| COc1cc2nc(N3CCN(C(=O)/C(C)=C/c4cccs4)CC3)nc(N)c2cc1OC.Cl | – | – | – | – | – | 1 | 1 | 34 | 0 | 3 | 0 | 1 | 0 | 1 | Decrease (Rattus norvegicus [12]): 14% |
| Cc1ccc(N(CC2=NCCN2)c2cccc(O)c2)cc1 [PHENTOLAMINE] | – | – | – | – | – | – | – | – | – | – | – | – | – | – | Kb (Rattus norvegicus [21]): 8.51 nM; Ratio [22]: 0.006 |
| COc1cc2nc(N3CCN(C(=O)/C=C/c4cccc(C(F)(F)F)c4)CC3)nc(N)c2cc1OC | 0 | 0 | – | – | – | – | – | – | – | – | – | – | – | – | – |
| COc1cc2nc(N3CCN(C(=O)/C=C/c4sccc4C)CC3)nc(N)c2cc1OC.Cl | 2 | 2 | 2 | 25 | 1 | – | – | – | – | – | 0 | 1 | 1 | 1 | Decrease (Rattus norvegicus [12]): 10% |
| CO.COc1cc(/C=C/C(=O)N2CCN(c3nc(N)c4cc(OC)c(OC)cc4n3)CC2)cc(OC)c1 | 0 | 0 | 0 | – | 0 | – | – | – | – | – | – | – | – | – | – |
| COc1cc2nc(N3CCN(C(=O)/C=C/c4ccc(C)o4)CC3)nc(N)c2cc1OC.Cl | 1 | 2 | 1 | 22 | 0 | – | – | – | – | – | 0 | 0 | 0 | 0 | – |
| CCOc1ccccc1/C=C/C(=O)N1CCN(c2nc(N)c3cc(OC)c(OC)cc3n2)CC1.Cl | – | 0 | 0 | – | – | – | – | – | – | – | – | – | – | – | – |
| COc1cc2nc(N3CCN(C(=O)/C=C/c4ccc(Cl)cc4)CC3)nc(N)c2cc1OC.Cl | 1 | 0 | – | 10 | – | – | – | – | – | – | – | – | – | – | – |
| COc1cc2nc(N3CCN(C(=O)/C=C/c4cccs4)CC3)nc(N)c2cc1OC | – | – | – | – | – | 2 | 1 | 24 | 0 | 2 | 0 | 1 | 1 | 1 | Decrease (Rattus norvegicus [16]): 10%; Activity (Rattus norvegicus [17]): 0; Activity (Rattus norvegicus [18]): 0; Decrease (Rattus norvegicus [12]): 14%; Activity (Rattus norvegicus [19]): 0; Activity (Rattus norvegicus [20]): 1 |
| COc1cc2nc(N3CCN(C(=O)/C(C)=C/c4ccccc4)CC3)nc(N)c2cc1OC.Cl | – | – | – | – | – | 1 | 0 | 16 | 0 | 1 | 0 | 0 | 1 | 0 | Decrease (Rattus norvegicus [12]): 12% |
| COc1cc2nc(N3CCN(C(=O)/C=C/c4ccc(OC)c(OC)c4OC)CC3)nc(N)c2cc1OC | 1 | 1 | 0 | 16 | 0 | – | – | – | – | – | – | – | – | – | – |
